Usually pEC50 stands for −log10 of the EC50, conventionally taken in molar units. Usually pIC50 stands for the IC50 on a negative log10 scale, so that one unit is a factor of ten. Lower therefore signals a large IC50.

pEC50, pIC50: −log10 of the molar value.

The values below come from ChEMBL document CHEMBL1221216, “Chemical probes for histone-modifying enzymes” (Nat Chem Biol, 2008).

The target of assay [1] is T1, NAD-dependent protein deacetylase sirtuin-2 (Homo sapiens, UniProt Q8IXJ6).
T1 sequence (Q8IXJ6 whole entry): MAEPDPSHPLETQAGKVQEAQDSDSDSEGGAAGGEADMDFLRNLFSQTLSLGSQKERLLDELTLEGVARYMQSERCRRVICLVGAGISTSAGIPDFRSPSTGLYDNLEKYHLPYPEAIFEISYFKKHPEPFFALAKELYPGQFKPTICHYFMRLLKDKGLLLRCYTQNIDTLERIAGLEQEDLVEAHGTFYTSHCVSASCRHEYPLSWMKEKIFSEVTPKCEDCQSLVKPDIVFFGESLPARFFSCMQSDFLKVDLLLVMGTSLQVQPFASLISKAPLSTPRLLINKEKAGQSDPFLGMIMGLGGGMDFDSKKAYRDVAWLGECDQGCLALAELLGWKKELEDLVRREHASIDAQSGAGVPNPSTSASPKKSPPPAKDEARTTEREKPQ
Nature of the assay: Activation of human SirT2 protein fluorescence polarization assay. (Fluorescence polarisation rises when a labelled molecule tumbles more slowly, as on binding a larger partner.)

Assay [2] can be described thus: Inhibition of histone methyltransferase SU(VAR)3-9.

The molecule `O=C(Nc1ccccc1-c1cn2c(CN3CCNCC3)csc2n1)c1cnc2ccccc2n1` showed a pEC50 in assay [1] of 6.80.

`CN1C(=O)[C@@]23C[C@]4([C@]56C[C@@]78SS[C@@](CO)(C(=O)N7[C@H]5Nc5ccccc56)N(C)C8=O)c5ccccc5N[C@@H]4N2C(=O)[C@]1(CO)SS3` [CHAETOCIN] showed a negative-log IC50 (pIC50) in assay [2] of 6.22.
